Assay results as given in US10392368B2, “Pyrazolo and triazolo bicyclic compounds as JAK kinase inhibitors” (THERAVANCE BIOPHARMA R&D IP, LLC, priority 2017, dated 2019).
Read-outs that look alike come from different tables or passages of the source.

Columns and labels:
[1] = molecular target: T1, JAK2 (Homo sapiens, UniProt O60674); experiment: Biochemical JAK2 kinase assay (LanthaScreen); details: for Ki: read-out: JAK 2 (pKi) (converted)
T1 construct: GST; purchased Life Technologies
In short: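 pKi values derive from pIC50 via Cheng-Prusoff, with IC50 from a 4-parameter fit of percent-inhibition TR-FRET data using Tb-anti-pSTAT1 (pTyr701) detection. Compound, GST-JAK2 and GFP-STAT1 substrate were pre-incubated 1 h, then ATP started a 1 h ambient reaction (HEPES pH 7.5, 10 mM MgCl2, 1% DMSO).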

[2] = molecular target: T2, JAK1 (Homo sapiens, UniProt P23458); experiment: Biochemical JAK1 kinase assay (LanthaScreen); details: for Ki: read-out: JAK 1 (pKi) (converted)
T2 construct: GST; purchased Life Technologies
In short: (§1)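 Compounds were preincubated with the GST-tagged kinase and GFP-labelled STAT1 peptide for one hour before ATP initiated a one-hour reaction at ambient temperature. Phosphorylation was quantified by TR-FRET with a Tb-labelled pTyr701 antibody. Ki values were derived from IC50 using Cheng-Prusoff.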

[3] = molecular target: T3, JAK3 (Homo sapiens, UniProt P52333); experiment: Biochemical JAK3 kinase assay (LanthaScreen); set-up: GST; purchased Life Technologies; details: for Ki: read-out: JAK 3 (pKi) (converted); for JAK3 (pKi)-JAK1 (pKi): selectivity: difference of pKi JAK3 and pKi JAK1
T3 sequence (P52333 1-1124): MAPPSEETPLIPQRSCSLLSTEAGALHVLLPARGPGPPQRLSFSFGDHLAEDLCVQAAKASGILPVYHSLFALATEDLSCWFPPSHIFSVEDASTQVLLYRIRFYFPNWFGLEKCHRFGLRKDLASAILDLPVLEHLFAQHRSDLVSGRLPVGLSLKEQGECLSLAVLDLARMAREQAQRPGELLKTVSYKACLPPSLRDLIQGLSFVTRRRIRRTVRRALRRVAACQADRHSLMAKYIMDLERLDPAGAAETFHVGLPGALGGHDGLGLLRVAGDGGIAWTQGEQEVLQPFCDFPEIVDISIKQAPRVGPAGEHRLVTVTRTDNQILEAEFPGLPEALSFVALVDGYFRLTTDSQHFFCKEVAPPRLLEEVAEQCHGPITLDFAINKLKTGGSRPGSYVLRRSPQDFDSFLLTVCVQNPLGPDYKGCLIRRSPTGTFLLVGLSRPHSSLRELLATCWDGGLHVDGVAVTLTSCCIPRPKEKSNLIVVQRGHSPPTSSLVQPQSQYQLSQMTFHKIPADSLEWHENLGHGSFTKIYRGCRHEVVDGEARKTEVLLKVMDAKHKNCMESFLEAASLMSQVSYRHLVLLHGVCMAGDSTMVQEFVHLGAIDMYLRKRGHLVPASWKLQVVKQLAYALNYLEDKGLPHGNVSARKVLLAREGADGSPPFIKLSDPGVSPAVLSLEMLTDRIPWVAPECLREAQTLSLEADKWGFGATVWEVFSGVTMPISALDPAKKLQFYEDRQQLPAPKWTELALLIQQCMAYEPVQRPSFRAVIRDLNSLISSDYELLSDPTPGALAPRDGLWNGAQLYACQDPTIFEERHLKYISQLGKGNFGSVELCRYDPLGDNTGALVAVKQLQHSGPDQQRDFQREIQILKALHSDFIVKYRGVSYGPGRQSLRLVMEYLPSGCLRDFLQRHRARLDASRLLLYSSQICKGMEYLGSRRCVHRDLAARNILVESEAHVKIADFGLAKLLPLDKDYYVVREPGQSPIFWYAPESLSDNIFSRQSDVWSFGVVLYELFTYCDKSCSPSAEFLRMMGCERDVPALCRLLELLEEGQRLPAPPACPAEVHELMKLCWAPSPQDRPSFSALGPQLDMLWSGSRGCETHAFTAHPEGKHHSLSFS
In short: as §1

[4] = test system: IL-2 stimulated pSTAT5 in Tall-1 T cells; experiment: Cellular JAK3 potency assay: inhibition of IL-2 stimulated pSTAT5 in Tall-1 T cells; assay type: cell-based, human; details: for IC50: Homo sapiens, read-out: Tall-1 (pIC50) (converted)
In short: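 Inhibition of IL-2-induced pSTAT5 was quantified by AlphaLisa in Tall-1 cell lysates. Compound exposure lasted 1 h before 30 min stimulation with 300 ng/ml IL-2 final.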

[5] = molecular target: T4, Tyk2 (Homo sapiens, UniProt P29597); experiment: Biochemical Tyk2 kinase assay (LanthaScreen); details: for Ki: read-out: Tyk 2 (pKi) (converted)
T4 construct: GST; purchased Life Technologies
In short: as §1

[6] = TALL-1, IL-2 stimulated pSTAT5 in Tall-1 T cells
[7] = IL-2 stimulated pSTAT5 in Tall-1 T cells

T4 sequence (P29597 whole entry): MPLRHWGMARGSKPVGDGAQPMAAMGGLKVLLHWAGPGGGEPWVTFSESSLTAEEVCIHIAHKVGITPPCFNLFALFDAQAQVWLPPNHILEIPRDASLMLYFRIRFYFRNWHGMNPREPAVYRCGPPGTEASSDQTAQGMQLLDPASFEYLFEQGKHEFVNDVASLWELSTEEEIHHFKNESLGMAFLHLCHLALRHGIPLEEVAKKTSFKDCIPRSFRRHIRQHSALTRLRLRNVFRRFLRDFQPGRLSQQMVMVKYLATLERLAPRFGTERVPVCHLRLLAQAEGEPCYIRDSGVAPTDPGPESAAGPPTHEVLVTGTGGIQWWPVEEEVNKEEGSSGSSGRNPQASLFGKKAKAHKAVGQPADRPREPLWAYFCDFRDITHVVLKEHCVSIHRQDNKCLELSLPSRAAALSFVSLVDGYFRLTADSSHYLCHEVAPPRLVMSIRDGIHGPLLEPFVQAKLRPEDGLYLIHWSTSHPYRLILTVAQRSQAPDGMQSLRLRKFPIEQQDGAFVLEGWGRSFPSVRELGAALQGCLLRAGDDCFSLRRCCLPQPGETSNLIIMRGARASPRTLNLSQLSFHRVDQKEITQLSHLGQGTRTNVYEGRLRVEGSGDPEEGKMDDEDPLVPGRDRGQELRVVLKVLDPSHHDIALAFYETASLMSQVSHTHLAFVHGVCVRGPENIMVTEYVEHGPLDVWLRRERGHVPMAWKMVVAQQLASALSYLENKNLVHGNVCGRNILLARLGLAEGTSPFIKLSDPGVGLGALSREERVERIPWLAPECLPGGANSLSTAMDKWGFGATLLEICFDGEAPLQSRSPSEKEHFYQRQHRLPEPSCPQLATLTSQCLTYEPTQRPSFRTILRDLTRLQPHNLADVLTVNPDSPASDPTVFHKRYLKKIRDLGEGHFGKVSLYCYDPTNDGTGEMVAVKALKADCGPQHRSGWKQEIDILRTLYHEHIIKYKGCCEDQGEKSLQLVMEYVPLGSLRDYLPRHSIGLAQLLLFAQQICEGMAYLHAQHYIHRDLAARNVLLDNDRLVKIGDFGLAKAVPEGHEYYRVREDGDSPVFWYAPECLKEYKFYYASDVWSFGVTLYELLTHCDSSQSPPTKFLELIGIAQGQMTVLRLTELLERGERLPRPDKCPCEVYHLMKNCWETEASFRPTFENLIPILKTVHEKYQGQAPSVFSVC
T2 sequence (P23458 whole entry): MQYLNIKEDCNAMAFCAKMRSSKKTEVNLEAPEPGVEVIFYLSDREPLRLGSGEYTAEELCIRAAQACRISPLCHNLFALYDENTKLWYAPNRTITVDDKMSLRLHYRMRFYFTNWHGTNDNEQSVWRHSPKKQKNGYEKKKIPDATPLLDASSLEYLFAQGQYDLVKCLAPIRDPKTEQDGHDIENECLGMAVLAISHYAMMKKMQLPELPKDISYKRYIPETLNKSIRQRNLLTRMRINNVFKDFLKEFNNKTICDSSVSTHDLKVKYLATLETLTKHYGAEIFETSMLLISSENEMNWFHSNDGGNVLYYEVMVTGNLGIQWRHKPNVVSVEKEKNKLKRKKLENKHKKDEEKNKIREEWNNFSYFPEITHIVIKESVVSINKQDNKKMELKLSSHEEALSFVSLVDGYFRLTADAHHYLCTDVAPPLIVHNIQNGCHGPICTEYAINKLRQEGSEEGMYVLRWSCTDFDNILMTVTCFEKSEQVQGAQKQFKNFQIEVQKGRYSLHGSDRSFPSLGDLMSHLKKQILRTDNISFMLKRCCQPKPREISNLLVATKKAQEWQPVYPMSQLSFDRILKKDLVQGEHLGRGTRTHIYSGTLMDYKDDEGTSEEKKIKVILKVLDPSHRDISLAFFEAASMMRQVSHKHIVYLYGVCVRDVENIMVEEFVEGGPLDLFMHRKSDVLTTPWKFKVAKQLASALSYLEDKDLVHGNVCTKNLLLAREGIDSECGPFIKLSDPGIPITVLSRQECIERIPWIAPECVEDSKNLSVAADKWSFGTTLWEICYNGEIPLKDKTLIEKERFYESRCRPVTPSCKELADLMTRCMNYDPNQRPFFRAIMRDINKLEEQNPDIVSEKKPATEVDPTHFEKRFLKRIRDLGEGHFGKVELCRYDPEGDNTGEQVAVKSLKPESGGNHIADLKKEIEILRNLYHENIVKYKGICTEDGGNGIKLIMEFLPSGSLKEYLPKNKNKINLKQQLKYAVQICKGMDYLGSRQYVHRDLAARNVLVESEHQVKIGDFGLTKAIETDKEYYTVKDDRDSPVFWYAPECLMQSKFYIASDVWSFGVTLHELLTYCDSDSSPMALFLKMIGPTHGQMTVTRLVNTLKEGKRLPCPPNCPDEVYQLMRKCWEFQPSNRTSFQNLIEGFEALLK
T1 sequence (O60674 whole entry): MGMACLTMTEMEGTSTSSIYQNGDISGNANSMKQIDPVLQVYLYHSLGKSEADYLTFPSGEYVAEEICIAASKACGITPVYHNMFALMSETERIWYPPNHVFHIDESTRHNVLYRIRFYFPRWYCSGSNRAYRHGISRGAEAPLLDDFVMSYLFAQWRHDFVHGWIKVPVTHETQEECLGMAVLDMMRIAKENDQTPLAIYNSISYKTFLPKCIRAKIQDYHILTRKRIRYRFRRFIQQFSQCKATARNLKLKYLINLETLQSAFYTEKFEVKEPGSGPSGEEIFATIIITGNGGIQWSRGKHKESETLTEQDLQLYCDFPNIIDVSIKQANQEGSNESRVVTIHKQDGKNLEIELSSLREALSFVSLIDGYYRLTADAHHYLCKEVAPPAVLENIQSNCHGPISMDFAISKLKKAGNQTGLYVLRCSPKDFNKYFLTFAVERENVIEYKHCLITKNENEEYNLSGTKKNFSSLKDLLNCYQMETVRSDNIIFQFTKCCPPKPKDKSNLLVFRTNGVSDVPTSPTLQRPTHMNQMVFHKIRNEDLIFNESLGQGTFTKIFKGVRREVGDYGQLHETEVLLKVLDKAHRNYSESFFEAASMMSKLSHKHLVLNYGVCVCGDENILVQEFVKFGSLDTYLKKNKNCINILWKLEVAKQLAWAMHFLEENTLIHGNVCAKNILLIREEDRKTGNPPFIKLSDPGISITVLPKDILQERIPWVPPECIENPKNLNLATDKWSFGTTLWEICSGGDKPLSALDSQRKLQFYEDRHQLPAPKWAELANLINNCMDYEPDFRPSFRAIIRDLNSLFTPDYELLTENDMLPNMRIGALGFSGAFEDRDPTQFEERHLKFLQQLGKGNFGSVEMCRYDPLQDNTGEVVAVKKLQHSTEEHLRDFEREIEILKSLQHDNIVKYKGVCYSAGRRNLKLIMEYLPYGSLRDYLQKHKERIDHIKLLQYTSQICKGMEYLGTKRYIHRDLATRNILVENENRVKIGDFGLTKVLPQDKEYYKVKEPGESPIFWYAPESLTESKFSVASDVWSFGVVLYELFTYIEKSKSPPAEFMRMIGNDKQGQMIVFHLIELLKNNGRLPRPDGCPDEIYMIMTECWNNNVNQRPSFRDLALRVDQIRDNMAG

Structure (SMILES)	Ki [1]	Ki [2]	Ki [3]	JAK3 (pKi)-JAK1 (pKi) [3]	IC50 [4, 6]	Ki [5]	JAK 2 (pKi) [1]	JAK 1 (pKi) [2]	JAK 3 (pKi) [3]	Tall-1 (pIC50) [4, 7]	Tyk 2 (pKi) [5]	IC50 [4, 7]
CN(C)C/C=C/C(=O)N1CC(COc2cc(-c3ccc(O)c(Cl)c3)cc3[nH]ncc23)C1 [Compound 3-2]	> 0.1 µM	> 0.1 µM	0.0001 to 0.001 µM	A (a value of 3 or above)	0.0316 to 0.2 µM	> 0.1 µM						
C=CC(=O)N1CC(COc2cc(-c3ccc(O)c(Cl)c3)cc3[nH]ncc23)C1 [Compound 3-3]	> 0.1 µM	> 0.1 µM	0.0001 to 0.001 µM	A (a value of 3 or above)	< 0.0316 µM	> 0.1 µM						
C=CC(=O)N1CC(COc2cc(-c3ccc(O)c(F)c3)cc3[nH]ncc23)C1 [Compound 3-4]	0.01 to 0.1 µM	> 0.1 µM	0.0001 to 0.001 µM	A (a value of 3 or above)	< 0.0316 µM	> 0.1 µM						
CN(C)C/C=C/C(=O)N1CC(F)(COc2cc(-c3ccc(O)cc3)cc3[nH]ncc23)C1 [Compound 3-5]				B (a value of 2.3 to 3)			D (a pKi value between 7 and 8 (Ki between 100 nM and 10 nM))	D (a pKi value between 7 and 8 (Ki between 100 nM and 10 nM))	B (a pKi value between 9 and 10 (Ki between 1 nM and 0.1 nM))	A (a pIC50 value≥7.5 (IC50≤32 nM))	E (a pKi value of 7 or below (Ki of 100 nM or above))	
CN(C)C/C=C/C(=O)N1CC(C)(COc2cc(-c3ccc(O)cc3)cc3[nH]ncc23)C1 [Compound 3-7]	0.01 to 0.1 µM	> 0.1 µM	< 0.0001 µM	A (a value of 3 or above)	0.0316 to 0.2 µM	> 0.1 µM						
C=CC(=O)N1CC(C)(COc2cc(-c3ccc(O)cc3)cc3[nH]ncc23)C1 [Compound 3-8]				A (a value of 3 or above)			E (a pKi value of 7 or below (Ki of 100 nM or above))	E (a pKi value of 7 or below (Ki of 100 nM or above))	B (a pKi value between 9 and 10 (Ki between 1 nM and 0.1 nM))	A (a pIC50 value≥7.5 (IC50≤32 nM))	E (a pKi value of 7 or below (Ki of 100 nM or above))	
CCC1(COc2cc(-c3ccc(O)cc3)cc3[nH]ncc23)CN(C(=O)/C=C/CN(C)C)C1 [Compound 3-13]				A (a value of 3 or above)			D (a pKi value between 7 and 8 (Ki between 100 nM and 10 nM))	E (a pKi value of 7 or below (Ki of 100 nM or above))	B (a pKi value between 9 and 10 (Ki between 1 nM and 0.1 nM))	A (a pIC50 value≥7.5 (IC50≤32 nM))	E (a pKi value of 7 or below (Ki of 100 nM or above))	
CCC1(COc2cc(-c3ccc(O)c(Cl)c3)cc3[nH]ncc23)CN(C(=O)/C=C/CN(C)C)C1 [Compound 3-15]	> 0.1 µM	> 0.1 µM	< 0.0001 µM	A (a value of 3 or above)	0.0316 to 0.2 µM	> 0.1 µM						
CCC1(COc2cc(-c3ccc(O)c(F)c3)cc3[nH]ncc23)CN(C(=O)/C=C/CN(C)C)C1 [Compound 3-17]				A (a value of 3 or above)			D (a pKi value between 7 and 8 (Ki between 100 nM and 10 nM))	E (a pKi value of 7 or below (Ki of 100 nM or above))	A (a pKi value≥10 (Ki≤0.1 nM))	A (a pIC50 value≥7.5 (IC50≤32 nM))	E (a pKi value of 7 or below (Ki of 100 nM or above))	
CN(C)C/C=C/C(=O)N1CC(C#N)(COc2cc(-c3ccc(O)cc3)cc3[nH]ncc23)C1 [Compound 3-19]				A (a value of 3 or above)			E (a pKi value of 7 or below (Ki of 100 nM or above))	E (a pKi value of 7 or below (Ki of 100 nM or above))	B (a pKi value between 9 and 10 (Ki between 1 nM and 0.1 nM))	B (a pIC50 value between 6.7 (included) and 7.5 (IC50 between 200 nM and 32 nM))	E (a pKi value of 7 or below (Ki of 100 nM or above))	
C=CC(=O)N1CC(C#N)(COc2cc(-c3ccc(O)cc3)cc3[nH]ncc23)C1 [Compound 3-20]				B (a value of 2.3 to 3)			D (a pKi value between 7 and 8 (Ki between 100 nM and 10 nM))	E (a pKi value of 7 or below (Ki of 100 nM or above))	B (a pKi value between 9 and 10 (Ki between 1 nM and 0.1 nM))	B (a pIC50 value between 6.7 (included) and 7.5 (IC50 between 200 nM and 32 nM))	E (a pKi value of 7 or below (Ki of 100 nM or above))	
CN(C)C/C=C/C(=O)N1CC(C#N)(COc2cc(-c3ccc(O)c(Cl)c3)cc3[nH]ncc23)C1 [Compound 3-21]	> 0.1 µM	> 0.1 µM	0.0001 to 0.001 µM	A (a value of 3 or above)	< 0.0316 µM	> 0.1 µM						
C=CC(=O)N1CC(C#N)(COc2cc(-c3ccc(O)c(Cl)c3)cc3[nH]ncc23)C1 [Compound 3-22]	> 0.1 µM	> 0.1 µM	< 0.0001 µM	A (a value of 3 or above)		> 0.1 µM						0.0316 to 0.2 µM
C=CC(=O)N1CC(C#N)(COc2cc(-c3ccc(O)c(F)c3)cc3[nH]ncc23)C1 [Compound 3-23]				A (a value of 3 or above)			D (a pKi value between 7 and 8 (Ki between 100 nM and 10 nM))	E (a pKi value of 7 or below (Ki of 100 nM or above))	A (a pKi value≥10 (Ki≤0.1 nM))	B (a pIC50 value between 6.7 (included) and 7.5 (IC50 between 200 nM and 32 nM))	E (a pKi value of 7 or below (Ki of 100 nM or above))	
CN(C)C/C=C/C(=O)N1CC(C(C)(C)Oc2cc(-c3ccc(O)cc3)cc3[nH]ncc23)C1 [Compound 3-24]				A (a value of 3 or above)			E (a pKi value of 7 or below (Ki of 100 nM or above))	E (a pKi value of 7 or below (Ki of 100 nM or above))	B (a pKi value between 9 and 10 (Ki between 1 nM and 0.1 nM))	B (a pIC50 value between 6.7 (included) and 7.5 (IC50 between 200 nM and 32 nM))	E (a pKi value of 7 or below (Ki of 100 nM or above))	
CN(C)C/C=C/C(=O)N1CC(C(C)(C)Oc2cc(-c3ccc(O)c(F)c3)cc3[nH]ncc23)C1 [Compound 3-27]	> 0.1 µM	> 0.1 µM	< 0.0001 µM	A (a value of 3 or above)	0.0316 to 0.2 µM	> 0.1 µM						
CC1C(COc2cc(-c3ccc(O)cc3)cc3[nH]ncc23)CN1C(=O)/C=C/CN(C)C (stereo not drawn) [Compound 3-30]				A (a value of 3 or above)			D (a pKi value between 7 and 8 (Ki between 100 nM and 10 nM))	E (a pKi value of 7 or below (Ki of 100 nM or above))	A (a pKi value≥10 (Ki≤0.1 nM))	B (a pIC50 value between 6.7 (included) and 7.5 (IC50 between 200 nM and 32 nM))	E (a pKi value of 7 or below (Ki of 100 nM or above))	
